Positions count from the first letter of the chain named. Values joined by “and” are separate entries in the source; they are usually repeats but may differ in a detail not shown here. Equal entries are not always repeated.
Experiments:
ACV-R1B (ALK4) = biological target: T1, ACV-R1B (ALK4) (Homo sapiens, UniProt P36896); test: radiometric protein kinase assay, ALK4; type: biochemical; conditions: [ATP] = 1 μM; Fig. 7C
T1 construct: purchased ProQinase GmbH (Freiburg, Germany); host or cells: bacteria (so in the source)
T1 sequence (P36896 24-505): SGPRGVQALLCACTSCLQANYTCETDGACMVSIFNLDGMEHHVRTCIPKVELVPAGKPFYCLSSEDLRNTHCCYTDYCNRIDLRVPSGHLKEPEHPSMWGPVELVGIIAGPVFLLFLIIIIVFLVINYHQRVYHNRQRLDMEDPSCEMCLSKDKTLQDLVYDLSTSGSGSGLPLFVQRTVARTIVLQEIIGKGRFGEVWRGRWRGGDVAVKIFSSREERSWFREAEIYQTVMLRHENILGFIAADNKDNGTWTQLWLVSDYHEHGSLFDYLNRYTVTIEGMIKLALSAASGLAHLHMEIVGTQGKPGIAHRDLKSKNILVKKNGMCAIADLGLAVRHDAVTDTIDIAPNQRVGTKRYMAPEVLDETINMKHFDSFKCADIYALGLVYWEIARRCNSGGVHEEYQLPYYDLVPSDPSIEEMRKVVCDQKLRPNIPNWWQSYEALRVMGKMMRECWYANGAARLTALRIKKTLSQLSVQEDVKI
Procedure: (§1) IC50 values were calculated using Prism 5.04 for Windows (GraphPad, San Diego, CA, USA; www.graphpad.com). The mathematical model used was ‘Sigmoidal response (variable slope)’ with parameters ‘top’ fixed at 100% and ‘bottom’ at 0%. The fitting method used was a least-squares fit.

ACV-R1 (ALK2) = biological target: T2, ACV-R1 (ALK2) (Homo sapiens, UniProt Q04771); test: radiometric protein kinase assay, ALK2; type: biochemical; conditions: [ATP] = 3 μM; Fig. 7B
T2 construct: purchased ProQinase GmbH (Freiburg, Germany); host or cells: bacteria (so in the source)
T2 sequence (Q04771 21-509): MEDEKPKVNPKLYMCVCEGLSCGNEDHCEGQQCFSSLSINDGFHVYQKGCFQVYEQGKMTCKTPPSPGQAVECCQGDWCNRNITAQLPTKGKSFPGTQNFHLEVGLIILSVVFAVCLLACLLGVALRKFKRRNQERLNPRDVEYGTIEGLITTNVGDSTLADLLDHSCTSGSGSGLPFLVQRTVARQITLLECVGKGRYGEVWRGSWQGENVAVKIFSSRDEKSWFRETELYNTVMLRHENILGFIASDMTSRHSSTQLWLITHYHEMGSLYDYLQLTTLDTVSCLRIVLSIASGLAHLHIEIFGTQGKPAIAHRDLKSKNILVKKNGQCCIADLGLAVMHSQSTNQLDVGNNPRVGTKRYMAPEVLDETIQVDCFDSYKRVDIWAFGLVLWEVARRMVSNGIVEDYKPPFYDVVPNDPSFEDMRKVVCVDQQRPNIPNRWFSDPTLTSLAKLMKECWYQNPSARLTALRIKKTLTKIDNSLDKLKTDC
Procedure: as §1

caALK2 = biological target: T3, caALK2 (Homo sapiens, UniProt Q04771, Q207D); test: caALK2-induced SMAD1/5 phosphorylation in HEK 293T cells; type: cell-based; conditions: cercosporamide 1-10 µM, LDN193189 200 nM
T3 construct: expressed in transfected cells; host or cells: HEK 293T
T3 sequence (Q04771 21-509 Q207D): T2 sequence (Q04771 21-509) with Q187D
Excerpt: HepG2 or HEK 293T cells were lysed in Laemmli sample buffer. Proteins were separated by sodium dodecyl sulfate polyacrylamide gel electrophoresis (SDS-PAGE) and transferred onto […] polyvinylidene difluoride (PVDF) membrane (IPVH00010, Merck Millipore). Membranes were blocked using 5% non-fat dry milk in Tris-buffered saline with 0.1% Tween 20 (655204, Merck Millipore) and probed with the respective primary and secondary antibodies. The signal was detected using Clarity™ Western ECL Substrate (1705060, Bio-Rad) and ChemiDoc Imaging System (17001402, Bio-Rad). The antibodies used for immunoblotting were raised against the following proteins: phospho-SMAD1/5/8 ([Persson et al., 1998]; 1:1000), SMAD1 (Cell Signaling Technology, #6944; 1:1000), GAPDH (Merck Millipore, #G8795; 1:5000) and hemagglutinin (HA; Roche, #12CA5; 1:1000).
For experiments with the caALK type I receptor constructs, HEK 293T cells were seeded in 24-well plates at ∼90% confluency and transfected with the DNA expression constructs in the presence of PEI. Thirty hours after transfection, the cells were added to serum-starved medium and treated with compounds for 16 h (overnight). Subsequently, the cells were washed with PBS and lysed in Laemmli sample buffer. […]

ACV-RL1 (ALK1) = biological target: T4, ACV-RL1 (ALK1) (Homo sapiens, UniProt P37023); test: radiometric protein kinase assay, ALK1; type: biochemical; conditions: [ATP] = 1 μM; Fig. 7D
T4 construct: purchased ProQinase GmbH (Freiburg, Germany); host or cells: bacteria (so in the source)
T4 sequence (P37023 22-503): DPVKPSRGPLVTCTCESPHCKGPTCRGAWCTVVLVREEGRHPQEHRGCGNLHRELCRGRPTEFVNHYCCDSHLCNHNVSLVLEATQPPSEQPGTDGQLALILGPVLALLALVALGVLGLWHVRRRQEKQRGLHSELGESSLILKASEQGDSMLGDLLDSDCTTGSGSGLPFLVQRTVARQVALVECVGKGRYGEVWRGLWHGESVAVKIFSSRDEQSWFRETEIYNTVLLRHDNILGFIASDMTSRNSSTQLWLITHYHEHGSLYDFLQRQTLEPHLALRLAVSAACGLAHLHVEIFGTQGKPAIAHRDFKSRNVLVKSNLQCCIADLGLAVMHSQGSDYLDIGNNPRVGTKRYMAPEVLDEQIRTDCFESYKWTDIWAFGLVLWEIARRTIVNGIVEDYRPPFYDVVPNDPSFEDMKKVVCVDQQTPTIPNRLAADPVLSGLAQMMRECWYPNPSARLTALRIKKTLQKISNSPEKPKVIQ
Procedure: as §1

zebrafish embryos = test: in situ hybridization with krox20/myod probes in treated zebrafish embryos; type: in vivo, zebrafish (Danio rerio); conditions: 750 nM from 6 hpf, fixed at 12 hpf
Procedure: Embryos were treated from approximately 6 hpf until 12 hpf when they were fixed in 4% paraformaldehyde overnight. In situ hybridization was performed using krox20 and myod anti-sense RNA probes as described elsewhere ([Thisse and Thisse, 2008]).

CC(=O)C1=C(O)C=C2Oc3c(C(N)=O)c(O)cc(O)c3[C@]2(C)C1=O [cercosporamide, Cercosporamide]
IC50 (ACV-R1B (ALK4)): 150 nM
IC50 (ACV-R1 (ALK2)): 600 nM
effect on caALK2-induced SMAD1/5 phosphorylation (caALK2): inhibited SMAD1/5 phosphorylation
IC50 (ACV-RL1 (ALK1)): 3300 nM
krox20 expression pattern (zebrafish embryos): induced lateral expression of krox20
fraction of embryos showing the pattern (zebrafish embryos; one fraction per depicted pattern): 7/15 and 6/15 and 2/15

Reference: paper PMC7522027 (Disease Models & Mechanisms, 2020)
